Reference: ChEMBL document CHEMBL5465560, “Selectivity Literature for EUbOPEN Chemogenomic Library” (2024)

Experiments:
[1] = molecular target: Histone-lysine N-methyltransferase ASH1L (Homo sapiens) (UniProt Q9NR48); settings: at 1 µM
[2] = molecular target: Polycomb protein SUZ12 (Homo sapiens) (UniProt Q15022); settings: at 10 µM
[3] = molecular target: 5'-AMP-activated protein kinase catalytic subunit alpha-2 (Homo sapiens) (UniProt P54646); experiment: Selectivity interaction (KinomeScan (DiscoverX)) EUB0001079a PRKAA2; settings: at 1 µM
[4] = molecular target: T1, Alpha-2A adrenergic receptor (Homo sapiens) (UniProt P08913); experiment: Selectivity interaction (Eurofins CEREP Diversity Profile (receptors and ion channels)) EUB0000279b ADRA2A; settings: at 10 µM
T1 sequence (whole entry): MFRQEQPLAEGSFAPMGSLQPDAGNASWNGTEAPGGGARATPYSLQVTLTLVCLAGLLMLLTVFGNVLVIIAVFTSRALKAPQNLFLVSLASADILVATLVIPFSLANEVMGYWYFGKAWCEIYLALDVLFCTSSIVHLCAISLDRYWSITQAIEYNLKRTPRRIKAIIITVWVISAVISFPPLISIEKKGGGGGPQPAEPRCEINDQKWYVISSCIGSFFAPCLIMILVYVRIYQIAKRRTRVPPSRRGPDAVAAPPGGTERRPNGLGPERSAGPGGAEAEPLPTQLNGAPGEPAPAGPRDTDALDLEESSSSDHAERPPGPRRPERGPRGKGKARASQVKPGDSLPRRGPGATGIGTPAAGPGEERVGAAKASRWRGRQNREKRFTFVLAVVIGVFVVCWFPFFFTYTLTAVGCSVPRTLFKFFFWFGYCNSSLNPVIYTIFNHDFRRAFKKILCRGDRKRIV

[5] = molecular target: T2, Ephrin type-A receptor 3 (Homo sapiens) (UniProt P29320); experiment: Selectivity interaction (KinomeScan (DiscoverX)) EUB0001049a EPHA3; settings: at 1 µM
T2 sequence (whole entry): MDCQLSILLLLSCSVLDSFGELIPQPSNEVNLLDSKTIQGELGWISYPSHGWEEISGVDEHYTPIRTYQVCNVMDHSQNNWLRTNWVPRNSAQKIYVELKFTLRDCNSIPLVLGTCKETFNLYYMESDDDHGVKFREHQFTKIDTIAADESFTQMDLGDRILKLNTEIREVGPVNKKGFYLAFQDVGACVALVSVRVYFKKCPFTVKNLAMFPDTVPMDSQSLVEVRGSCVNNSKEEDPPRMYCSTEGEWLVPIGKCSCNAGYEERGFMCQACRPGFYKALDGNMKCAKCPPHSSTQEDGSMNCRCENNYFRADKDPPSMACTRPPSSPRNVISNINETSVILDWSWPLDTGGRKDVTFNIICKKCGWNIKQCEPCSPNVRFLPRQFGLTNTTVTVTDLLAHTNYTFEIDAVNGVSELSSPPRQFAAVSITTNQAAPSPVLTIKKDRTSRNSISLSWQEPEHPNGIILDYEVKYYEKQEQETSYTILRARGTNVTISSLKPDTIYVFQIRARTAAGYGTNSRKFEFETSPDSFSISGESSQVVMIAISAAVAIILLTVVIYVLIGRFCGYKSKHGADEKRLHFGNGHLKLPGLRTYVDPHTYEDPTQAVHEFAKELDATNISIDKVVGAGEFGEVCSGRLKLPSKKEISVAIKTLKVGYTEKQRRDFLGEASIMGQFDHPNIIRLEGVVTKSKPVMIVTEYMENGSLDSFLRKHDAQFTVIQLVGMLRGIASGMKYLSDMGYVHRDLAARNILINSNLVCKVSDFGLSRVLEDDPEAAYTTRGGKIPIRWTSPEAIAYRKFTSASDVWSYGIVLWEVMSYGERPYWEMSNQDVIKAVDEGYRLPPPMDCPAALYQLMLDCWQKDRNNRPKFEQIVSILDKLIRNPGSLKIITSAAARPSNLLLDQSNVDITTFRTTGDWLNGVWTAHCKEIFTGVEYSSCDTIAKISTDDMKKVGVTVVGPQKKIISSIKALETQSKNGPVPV

[6] = molecular target: T3, Myosin light chain kinase (Homo sapiens) (UniProt Q32MK0); experiment: Selectivity interaction (ProQinase) EUB0000171b MYLK3
T3 sequence (whole entry): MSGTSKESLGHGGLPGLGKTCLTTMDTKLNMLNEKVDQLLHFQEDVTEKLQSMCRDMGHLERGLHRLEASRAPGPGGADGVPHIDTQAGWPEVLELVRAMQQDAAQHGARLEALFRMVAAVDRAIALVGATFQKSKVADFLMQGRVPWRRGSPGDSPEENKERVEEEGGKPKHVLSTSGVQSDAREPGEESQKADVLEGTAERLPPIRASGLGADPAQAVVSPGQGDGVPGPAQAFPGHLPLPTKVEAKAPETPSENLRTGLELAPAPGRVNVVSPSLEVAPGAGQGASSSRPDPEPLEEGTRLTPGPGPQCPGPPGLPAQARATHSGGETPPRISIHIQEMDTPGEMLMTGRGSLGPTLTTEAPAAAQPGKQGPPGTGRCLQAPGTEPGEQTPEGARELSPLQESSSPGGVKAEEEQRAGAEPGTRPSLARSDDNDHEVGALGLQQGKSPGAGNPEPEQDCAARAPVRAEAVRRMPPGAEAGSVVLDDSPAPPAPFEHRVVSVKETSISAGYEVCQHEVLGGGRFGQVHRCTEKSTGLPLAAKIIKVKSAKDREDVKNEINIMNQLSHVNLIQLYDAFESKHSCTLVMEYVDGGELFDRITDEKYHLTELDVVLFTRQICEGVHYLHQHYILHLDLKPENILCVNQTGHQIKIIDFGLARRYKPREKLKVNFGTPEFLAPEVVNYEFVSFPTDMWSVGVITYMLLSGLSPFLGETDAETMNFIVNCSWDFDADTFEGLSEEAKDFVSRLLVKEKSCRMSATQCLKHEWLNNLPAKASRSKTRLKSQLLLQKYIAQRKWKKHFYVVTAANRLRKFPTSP

[7] = molecular target: Tyrosine-protein kinase SYK (Homo sapiens, UniProt P43405); experiment: Selectivity interaction (KinaseProfiler screening (Millipore)) EUB0000601a SYK; settings: at 3 µM
[8] = molecular target: T4, Uncharacterized serine/threonine-protein kinase SBK3 (Homo sapiens) (UniProt P0C264); experiment: Selectivity interaction (KinomeScan (DiscoverX)) EUB0000618a SBK3; settings: at 10 µM
T4 sequence (whole entry): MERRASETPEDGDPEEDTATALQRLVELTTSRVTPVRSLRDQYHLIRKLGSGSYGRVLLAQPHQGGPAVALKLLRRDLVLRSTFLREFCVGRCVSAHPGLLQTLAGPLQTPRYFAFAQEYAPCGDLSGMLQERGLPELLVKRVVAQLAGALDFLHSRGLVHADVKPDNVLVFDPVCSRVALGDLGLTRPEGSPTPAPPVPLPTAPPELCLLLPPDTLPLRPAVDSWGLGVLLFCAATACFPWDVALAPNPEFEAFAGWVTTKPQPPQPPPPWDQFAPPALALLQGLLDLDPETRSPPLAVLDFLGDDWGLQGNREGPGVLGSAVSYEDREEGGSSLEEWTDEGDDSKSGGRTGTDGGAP

Polycomb protein SUZ12 (Homo sapiens), sequence (Q15022 whole entry): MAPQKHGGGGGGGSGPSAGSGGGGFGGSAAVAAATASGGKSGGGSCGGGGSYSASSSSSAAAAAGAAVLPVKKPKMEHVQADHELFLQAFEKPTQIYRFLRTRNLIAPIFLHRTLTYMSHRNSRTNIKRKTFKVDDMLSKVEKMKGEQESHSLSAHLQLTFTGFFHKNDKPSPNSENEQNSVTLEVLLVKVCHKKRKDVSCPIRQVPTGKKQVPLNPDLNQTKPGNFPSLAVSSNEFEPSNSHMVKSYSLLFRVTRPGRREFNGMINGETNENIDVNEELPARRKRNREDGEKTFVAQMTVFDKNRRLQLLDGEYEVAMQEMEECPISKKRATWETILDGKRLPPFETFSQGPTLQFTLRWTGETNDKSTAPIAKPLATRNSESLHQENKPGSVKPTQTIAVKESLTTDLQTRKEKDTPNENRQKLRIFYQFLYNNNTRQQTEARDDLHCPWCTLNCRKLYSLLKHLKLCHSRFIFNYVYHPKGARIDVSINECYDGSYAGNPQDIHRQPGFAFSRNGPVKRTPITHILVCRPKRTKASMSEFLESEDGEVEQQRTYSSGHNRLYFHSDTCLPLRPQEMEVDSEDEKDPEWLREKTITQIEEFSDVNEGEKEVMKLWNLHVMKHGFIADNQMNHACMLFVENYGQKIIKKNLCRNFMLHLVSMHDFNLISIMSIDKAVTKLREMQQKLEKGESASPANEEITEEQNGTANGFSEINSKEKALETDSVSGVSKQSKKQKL
5'-AMP-activated protein kinase catalytic subunit alpha-2 (Homo sapiens), sequence (P54646 whole entry, looked up): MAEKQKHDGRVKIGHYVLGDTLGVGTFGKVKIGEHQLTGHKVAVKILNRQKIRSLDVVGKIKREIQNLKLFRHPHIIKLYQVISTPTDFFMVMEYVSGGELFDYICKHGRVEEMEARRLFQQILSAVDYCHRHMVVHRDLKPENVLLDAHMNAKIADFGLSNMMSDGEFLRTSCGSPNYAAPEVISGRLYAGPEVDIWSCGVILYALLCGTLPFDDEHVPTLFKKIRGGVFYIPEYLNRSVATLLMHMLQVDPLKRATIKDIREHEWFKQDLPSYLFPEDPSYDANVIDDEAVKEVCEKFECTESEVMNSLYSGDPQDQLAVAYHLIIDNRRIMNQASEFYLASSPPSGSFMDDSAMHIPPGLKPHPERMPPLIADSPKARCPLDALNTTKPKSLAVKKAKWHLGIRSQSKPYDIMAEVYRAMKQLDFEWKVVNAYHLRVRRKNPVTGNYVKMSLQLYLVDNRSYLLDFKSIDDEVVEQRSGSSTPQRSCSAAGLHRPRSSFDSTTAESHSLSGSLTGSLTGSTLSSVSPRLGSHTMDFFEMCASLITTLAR

SMILES: CNCCN1CCC(c2cc(CN(C)C(=O)c3cccc(Oc4ccccc4)c3)ccn2)CC1
- % activity [1]: > 90%
- % activity [2]: > 90%

SMILES: Nc1cnc(N2CCc3cc(S(=O)(=O)Nc4c(F)cc(Cl)cc4F)cc(N4CCCC4=O)c32)nc1 [TP-020n]
- % of control [3]: 100%

SMILES: CC(=O)c1cc(-c2ccccc2OCC2CC2)c2ncccn12
- % of control [4]: 100%

SMILES: COc1cc(Nc2nc(C)cc(-c3cnn4nc(OC)ccc34)n2)cc(C(F)(F)F)c1
- % of control [5]: 80%

SMILES: C=CC(=O)Nc1cccc(C(=O)Nc2ccc(Nc3cc(-c4[nH]c(SC)nc4C)ccn3)cc2)c1
- % of control ([6]; at 1 µM): 89%
- % of control ([6]; at 5 µM): 68%

SMILES: CCc1cc(Nc2nccc(-c3c(-c4ccc(OC)c(C(=O)Nc5c(F)cccc5F)c4)nc4ccccn34)n2)c(OC)cc1N1CCC(N2CCN(S(C)(=O)=O)CC2)CC1
- % of inhibition [7]: 50%

SMILES: O[C@H]1CC[C@H](Nc2ncc3nc(Nc4c(F)cc(F)cc4F)n([C@H]4CCOC4)c3n2)CC1
- % of control [8]: 100%
